Columns and labels:
Assay in all cases: Test C preemergence
Type in all cases: in vivo
[1] = tested on: ryegrass, Italian (Italian ryegrass, Lolium multiflorum); settings: for Plant response rating, Ryegrass, Italian: scale 0 to 100, 0 no effect, 100 complete control
How it was run: (§1)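 Seeds in loam-sand soil treated preemergence, or plants in peat-based medium sprayed postemergence at 2–18 cm (1- to 4-leaf stage), with compound in a non-phytotoxic solvent mixture containing surfactant. Greenhouse-held 13–15 d, then visually rated against controls on a 0–100 scale (0 = no effect, 100 = complete control); dash = not tested.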

[2] = tested on: foxtail, giant (giant foxtail, Setaria faberii); settings: for Plant response rating, Foxtail, Giant: scale 0 to 100, 0 no effect, 100 complete control
How it was run: as §1

[3] = tested on: pigweed (Amaranthus retroflexus); settings: for Plant response rating, Pigweed: scale 0 to 100, 0 no effect, 100 complete control
How it was run: as §1

[4] = tested on: lambsquarters (Chenopodium album); settings: for Plant response rating, Lambsquarters: scale 0 to 100, 0 no effect, 100 complete control
How it was run: as §1

[5] = tested on: johnsongrass (Sorghum halepense); settings: for Plant response rating, Johnsongrass: scale 0 to 100, 0 no effect, 100 complete control
How it was run: as §1

[6] = tested on: oilseed rape (Brassica napus); settings: for Plant response rating, Oilseed Rape: scale 0 to 100, 0 no effect, 100 complete control
How it was run: as §1

[7] = tested on: nutsedge, yellow (yellow nutsedge, Cyperus esculentus); settings: for Plant response rating, Nutsedge, Yellow: scale 0 to 100, 0 no effect, 100 complete control
How it was run: as §1

[8] = tested on: morningglory (Ipomoea coccinea); settings: for Plant response rating, Morningglory: scale 0 to 100, 0 no effect, 100 complete control
How it was run: as §1

[9] = tested on: wheat (winter wheat, Triticum aestivum); settings: for Plant response rating, Wheat: scale 0 to 100, 0 no effect, 100 complete control
How it was run: as §1

[10] = tested on: barnyardgrass (Echinochloa crus-galli); settings: for Plant response rating, Barnyardgrass: scale 0 to 100, 0 no effect, 100 complete control
How it was run: as §1

[11] = tested on: soybean (Glycine max); settings: for Plant response rating, Soybean: scale 0 to 100, 0 no effect, 100 complete control
How it was run: as §1

[12] = tested on: crabgrass, large (large crabgrass, Digitaria sanguinalis); settings: for Plant response rating, Crabgrass, Large: scale 0 to 100, 0 no effect, 100 complete control
How it was run: as §1

[13] = tested on: blackgrass (Alopecurus myosuroides); settings: for Plant response rating, Blackgrass: scale 0 to 100, 0 no effect, 100 complete control
How it was run: as §1

[14] = tested on: corn (Zea mays); settings: for Plant response rating, Corn: scale 0 to 100, 0 no effect, 100 complete control
How it was run: as §1

[15] = tested on: velvetleaf (Abutilon theophrasti); settings: for Plant response rating, Velvetleaf: scale 0 to 100, 0 no effect, 100 complete control
How it was run: as §1

[16] = tested on: Galium (catchweed bedstraw, Galium aparine); settings: for Plant response rating, Galium: scale 0 to 100, 0 no effect, 100 complete control
How it was run: as §1

[17] = tested on: waterhemp (common waterhemp, Amaranthus rudis); settings: for Plant response rating, Waterhemp: scale 0 to 100, 0 no effect, 100 complete control
How it was run: as §1

[18] = 31 g ai/ha, 0 is no effect, 100 is complete control

With `O=C1NCC(c2cccc(OC(F)(F)C(F)F)c2)C1C(=O)Nc1ccc(F)c(F)c1F` (racemic) [Compound 698] as the molecule, how does the “Plant response rating (scale of 0 to 100), Ryegrass, Italian” value [1, 18] read?
The value was 0.

And the “Plant response rating, Ryegrass, Italian” value ([1]; 62 g ai/ha)?
The value was 0.

And the “Plant response rating, Ryegrass, Italian” value ([1]; 125 g ai/ha)?
The value was 0.

What about the “Plant response rating, Ryegrass, Italian” value ([1]; 250 g ai/ha) of the same molecule?
Its value is 30.

And the “Plant response rating (scale of 0 to 100), Foxtail, Giant” value [2, 18]?
Its value is 85.

What about the “Plant response rating, Foxtail, Giant” value ([2]; 62 g ai/ha) of the same molecule?
Its value is 90.

What about the “Plant response rating, Foxtail, Giant” value ([2]; 125 g ai/ha) of the same molecule?
Its value is 85.

What about the “Plant response rating, Foxtail, Giant” value ([2]; 250 g ai/ha) of the same molecule?
Its value is 90.

And the “Plant response rating (scale of 0 to 100), Pigweed” value [3, 18]?
The value was 75.

What about the “Plant response rating, Pigweed” value ([3]; 62 g ai/ha) of the same molecule?
The value was 85.

What about the “Plant response rating, Pigweed” value ([3]; 125 g ai/ha) of the same molecule?
Its value is 90.

What about the “Plant response rating, Pigweed” value ([3]; 250 g ai/ha) of the same molecule?
The value was 90.

And the “Plant response rating (scale of 0 to 100), Lambsquarters” value [4, 18]?
The value was 10.

What about the “Plant response rating, Lambsquarters” value ([4]; 62 g ai/ha) of the same molecule?
The value was 35.

And the “Plant response rating, Lambsquarters” value ([4]; 125 g ai/ha)?
The value was 70.

And the “Plant response rating, Lambsquarters” value ([4]; 250 g ai/ha)?
The value was 80.

What about the “Plant response rating (scale of 0 to 100), Johnsongrass” value [5, 18] of the same molecule?
The value was 75.

What about the “Plant response rating, Johnsongrass” value ([5]; 62 g ai/ha) of the same molecule?
The value was 75.

What about the “Plant response rating, Johnsongrass” value ([5]; 125 g ai/ha) of the same molecule?
Its value is 80.

And the “Plant response rating, Johnsongrass” value ([5]; 250 g ai/ha)?
The value was 85.

What about the “Plant response rating (scale of 0 to 100), Oilseed Rape” value [6, 18] of the same molecule?
Its value is 0.

And the “Plant response rating, Oilseed Rape” value ([6]; 62 g ai/ha)?
The value was 30.

And the “Plant response rating, Oilseed Rape” value ([6]; 125 g ai/ha)?
Its value is 80.

What about the “Plant response rating, Oilseed Rape” value ([6]; 250 g ai/ha) of the same molecule?
The value was 85.

And the “Plant response rating (scale of 0 to 100), Nutsedge, Yellow” value [7, 18]?
Its value is 0.

What about the “Plant response rating, Nutsedge, Yellow” value ([7]; 62 g ai/ha) of the same molecule?
The value was 0.

And the “Plant response rating, Nutsedge, Yellow” value ([7]; 125 g ai/ha)?
Its value is 0.

What about the “Plant response rating, Nutsedge, Yellow” value ([7]; 250 g ai/ha) of the same molecule?
The value was 0.

What about the “Plant response rating (scale of 0 to 100), Morningglory” value [8, 18] of the same molecule?
Its value is 0.

And the “Plant response rating, Morningglory” value ([8]; 62 g ai/ha)?
Its value is 0.

And the “Plant response rating, Morningglory” value ([8]; 125 g ai/ha)?
Its value is 20.

And the “Plant response rating, Morningglory” value ([8]; 250 g ai/ha)?
Its value is 25.

What about the “Plant response rating (scale of 0 to 100), Wheat” value [9, 18] of the same molecule?
The value was 0.

What about the “Plant response rating, Wheat” value ([9]; 62 g ai/ha) of the same molecule?
The value was 0.

And the “Plant response rating, Wheat” value ([9]; 125 g ai/ha)?
The value was 0.

And the “Plant response rating, Wheat” value ([9]; 250 g ai/ha)?
The value was 30.

What about the “Plant response rating (scale of 0 to 100), Barnyardgrass” value [10, 18] of the same molecule?
Its value is 75.

And the “Plant response rating, Barnyardgrass” value ([10]; 62 g ai/ha)?
The value was 90.

What about the “Plant response rating, Barnyardgrass” value ([10]; 125 g ai/ha) of the same molecule?
Its value is 90.

And the “Plant response rating, Barnyardgrass” value ([10]; 250 g ai/ha)?
The value was 90.

And the “Plant response rating (scale of 0 to 100), Soybean” value [11, 18]?
The value was 35.

And the “Plant response rating, Soybean” value ([11]; 62 g ai/ha)?
The value was 0.

And the “Plant response rating, Soybean” value ([11]; 125 g ai/ha)?
The value was 0.

And the “Plant response rating, Soybean” value ([11]; 250 g ai/ha)?
Its value is 0.

What about the “Plant response rating (scale of 0 to 100), Crabgrass, Large” value [12, 18] of the same molecule?
The value was 90.

What about the “Plant response rating, Crabgrass, Large” value ([12]; 62 g ai/ha) of the same molecule?
The value was 90.

And the “Plant response rating, Crabgrass, Large” value ([12]; 125 g ai/ha)?
The value was 95.

And the “Plant response rating, Crabgrass, Large” value ([12]; 250 g ai/ha)?
Its value is 95.

And the “Plant response rating (scale of 0 to 100), Blackgrass” value [13, 18]?
Its value is 0.

And the “Plant response rating, Blackgrass” value ([13]; 62 g ai/ha)?
The value was 0.

And the “Plant response rating, Blackgrass” value ([13]; 125 g ai/ha)?
Its value is 50.

What about the “Plant response rating, Blackgrass” value ([13]; 250 g ai/ha) of the same molecule?
Its value is 70.

And the “Plant response rating (scale of 0 to 100), Corn” value [14, 18]?
Its value is 40.

And the “Plant response rating, Corn” value ([14]; 62 g ai/ha)?
Its value is 70.

And the “Plant response rating, Corn” value ([14]; 125 g ai/ha)?
The value was 80.

What about the “Plant response rating, Corn” value ([14]; 250 g ai/ha) of the same molecule?
The value was 80.

What about the “Plant response rating (scale of 0 to 100), Velvetleaf” value [15, 18] of the same molecule?
Its value is 25.

And the “Plant response rating, Velvetleaf” value ([15]; 62 g ai/ha)?
Its value is 40.

What about the “Plant response rating, Velvetleaf” value ([15]; 125 g ai/ha) of the same molecule?
Its value is 50.

And the “Plant response rating, Velvetleaf” value ([15]; 250 g ai/ha)?
The value was 65.

And the “Plant response rating (scale of 0 to 100), Galium” value [16, 18]?
Its value is 100.

What about the “Plant response rating, Galium” value ([16]; 62 g ai/ha) of the same molecule?
The value was 90.

What about the “Plant response rating, Galium” value ([16]; 125 g ai/ha) of the same molecule?
The value was 100.

What about the “Plant response rating, Galium” value ([16]; 250 g ai/ha) of the same molecule?
The value was 90.

What about the “Plant response rating (scale of 0 to 100), Waterhemp” value [17, 18] of the same molecule?
Its value is 85.

What about the “Plant response rating, Waterhemp” value ([17]; 62 g ai/ha) of the same molecule?
Its value is 85.

What about the “Plant response rating, Waterhemp” value ([17]; 125 g ai/ha) of the same molecule?
The value was 85.

What about the “Plant response rating, Waterhemp” value ([17]; 250 g ai/ha) of the same molecule?
The value was 90.

— patent US12077503B2, “Substituted cyclic amides and their use as herbicides” (FMC CORPORATION, priority 2015, dated 2024)
